B1: wild type PQQGDH: wild type PQQ dependent glucose dehydrogenase (Toyobo GLD-321) (protein, listed as Acinetobacter baumannii)
chain: DIPLTPAQFAKAKTENFDKKVILSNLNKPHALLWGPDNQIWLTERATGKILRVNPVSGSAKTVFQVPEIVSDADGQNGLLGFAFHPDFKHNPYIYISGTFKNPKSTDKELPNQTIIRRYTYNKTTDTFEKPIDLIAGLPSSKDHQSGRLVIGPDQKIYYTIGDQGRNQLAYLFLPNQAQHTPTQQELNSKDYHTYMGKVLRLNLDGSVPKDNPSFNGVVSHIYTLGHRNPQGLAFAPNGKLLQSEQGPNSDDEINLVLKGGNYGWPNVAGYKDDSGYAYANYSAATNKSQIKDLAQNGIKVATGVPVTKESEWTGKNFVPPLKTLYTVQDTYNYNDPTCGEMAYICWPTVAPSSAYVYTGGKKAIPGWENTLLVPSLKRGVIFRIKLDPTYSTTLDDAIPMFKSNNRYRDVIASPEGNTLYVLTDTAGNVQKDDGSVTHTLENPGSLIKFTYNGK

Tests used:
modified PQQGDH [1] = assay: Maltose activity of glucose electrode loaded with modified PQQGDH (oxidation current, potassium ferricyanide mediator); type: biochemical, Acinetobacter baumannii strain NCIMB11517; conditions: for Maltose Activity of Glucose Electrode: 50 mM solvent, 1 mM calcium chloride, 0.1% Triton X-100; for Maltose Activity (%): solute 50 mM, pH 5.5, glucose or maltose 4 mM, 0.1 M potassium ferricyanide, +0.35 V, 25° C.
Method: 0.5 g of carbon graphite were placed in a mortar followed by the addition of 0.3 ml of liquid paraffin and kneading with a pestle for 30 minutes to produce a carbon paste. The resulting carbon paste was spread onto a platinum electrode followed by the addition of 10 μl of the modified PQQGDH solution (2,000 U/ml) produced in Example 2 and air drying for 30 minutes at room temperature. A cut cellulose semi-permeable membrane (molecular weight: 8,000) was placed over the dried enzyme electrode and the semi-permeable membrane was immobilized with plastic O-rings. The glucose electrode produced in this manner was then used after preliminarily immersing in the cold reaction solvent for 30 minutes.
The substances listed in Table 1 were used as solutes, and buffers were respectively prepared having a final concentration of 50 mM (pH 5.5). Each of the solvents contained an activator/stabilizer in the form of calcium chloride at 1 mM and surfactant in the form of 0.1% Triton X-100 in addition to the solute listed in Table 1. Potassium ferricyanide was dissolved in each of the produced solvents to a concentration of 0.1 M to prepare reaction solutions.
50 mM phosphoric acid or pimeric acid solution containing 1 mM calcium chloride and 0.1% Triton X-100 (consisting of three types having pH values of 5.0, 6.0 and 7.0, respectively) were prepared. Maltose activity of the glucose electrode was investigated for each according to the method of Example 5.

modified PQQGDH [2] = assay: Substrate specificity using glucose assay system (ferricyanide reduction, absorbance 420 nm); type: biochemical; conditions: for activity with respect to maltose compared with the control (in words): substrate concentration of 4.8 mM, in some cases
Method: D-glucose+ferricyanide ion+PQQGDH D-glucono-1,5-lactone+ferrocyanide ion
Specificity to each substrate can be determined by changing D-glucose to other saccharides. The presence of the ferrocyanide ion produced by reduction of the ferricyanide ion was confirmed by measuring the decrease of absorbance at a wavelength of 420 nm by spectrophotometry.
A. […]
B. Potassium ferricyanide solution: 50 mM (0.165 g potassium ferricyanide (molecular weight: 329.25) dissolved in 10 ml of distilled water)
C. PQQGDH solution: 31000 U/ml (approx. 128 mg PQQGDH (Toyobo: GLD-331) dissolved in 5 ml of distilled water)
D. Substrate solution (D-glucose solution or maltose solution): 100 or 400 mM
• 1. The following reaction mixture was prepared in a light shielding bottle, and stored on ice (prepared at use). 48.2 mL of each buffer solution (pH6.5) (A) • 4.0 mL of potassium ferricyanide solution (B) • 0.19 mL of (C) • 2. 2.65 ml of the reaction mixture and 0.3 ml of additive were placed in a test tube (plastic) and pre-warmed for 5 minutes at 37° C. • 3. 0.15 ml of substrate solution (D) were added and mixed gently. • 4. The reduction in the absorbance relative to water at 420 nm was recorded for 1 to 3 minutes with a spectrophotometer while maintaining at a temperature of 37° C., and the ΔOD per minute was calculated from the initial linear portion of the curve (ΔOD test). At the same time, the same procedure was carried out with the exception of adding distilled water instead of glucose solution followed by measurement of the blank (ΔOD blank).
The above-mentioned procedure was carried out at each of the predetermined concentrations shown in Tables 1 to 3 using as additives succinic acid, adipic acid, suberic acid, pimeric acid, potassium chloride, ammonium chloride, diammonium hydrogen citrate, malonic acid, L-lysine, taurine, 3,3-dimethylglutaric acid, malic acid, glutaric acid, calcium glycerate, amino-n-butyric acid, sodium glycolate, sodium α-ketoglutarate, fumaric acid, glycerin, glutamic acid and serine. And the procedure was also carried out for those not containing additives to assess the effects of additives.
Variation in absorbance per unit time was determined by calculating ΔOD/min(ΔOD test−ΔOD blank)
To evaluate whether activity had declined with respect to sugars other than glucose, the ΔOD/min (a) with D-glucose as the substrate solution and the ΔOD/min (b) with the other sugar in place of D-glucose as the substrate solution were measured, and the relative value ((b)/(a)×100) was calculated given 100 as the measurement value with glucose as the substrate.
In each of Tables 3 to 5, in the case the value of the ratio of measured values of maltose and glucose (maltose/glucose) relative to the control (control: no addition) is small, activity with respect to maltose during glucose measurement decreases.

modified PQQGDH [3] = assay: as above; type: biochemical; conditions: potassium phosphate buffer pH 7.0
[4] = Maltose activity of purified PQQGDH by GDH activity measurement (PMS/DCPIP, Test Example 1); type: biochemical, Acinetobacter baumannii strain NCIMB11517; conditions: substrate concentration in the assay mixture 4.8 mM; PIPES-NaOH pH 6.5, 37° C.
Method: D-glucose+PMS+PQQGDH→D-glucono-1,5-lactone+PMS (red)
PMS (red)+DCPIP→PMS+DCPIP (red)
The presence of DCPIP (red) formed by reduction of […] (DCPIP) by phenazine methosulfate (PMS) (red) was measured by spectrophotometry at 600 nm.
• A. D-glucose reagent: 1.0 M (1.8 g D-glucose (molecular weight: 180.16)/10 ml H2O) • B. PIPES-NaOH buffer: pH 6.5, 50 mM (1.51 g of PIPES (molecular weight: 302.36) suspended in 60 ml of water dissolved in 5 N NaOH followed by the addition of 2.2 ml of 10% Triton X-100; adjusted to pH of 6.5±0.5 at 25° C. using 5 N NaOH and brought to a final volume of 100 ml by addition of water) • C. PMS solution: 24 mM (73.52 mg of phenazine methosulfate (molecular weight: […])/10 ml H2O) • D. DCPIP solution: 2.0 mM (6.5 mg of […]/10 ml H2O • E. Enzyme diluent: 50 mM PIPES-NaOH buffer containing 1 mM CaCl2, 0.1% Triton X-100 and 0.1% BSA (pH: 6.5) Procedure:
The following reaction mixture was prepared in a light-protected bottle and stored on ice (prepared at the time of use). • 1. […]
The reduction in the absorbance relative to water at 600 nm was recorded for 4 to 5 minutes with a spectrophotometer while maintaining the temperature of the mixture at 37° C., and the ΔOD per minute was calculated from the initial linear portion of the curve (OD test). […]
Activity was calculated using the following formula. […]

[5] = glutaric acid buffer pH 7.0, reagent 0.1%, substrate 4.8 mM, control 0.86
[6] = glutaric acid buffer pH 7.0, reagent 0.1%, substrate 19.2 mM, control 0.94
[7] = glutaric acid buffer pH 7.0, reagent 1%, substrate 4.8 mM, control 0.86
[8] = glutaric acid buffer pH 7.0, reagent 1%, substrate 19.2 mM, control 0.94
[9] = phthalic acid buffer pH 7.0, reagent 0.05%, substrate 4.8 mM, control 0.72
[10] = phthalic acid buffer pH 7.0, reagent 0.05%, substrate 19.2 mM, control 0.75
[11] = phthalic acid buffer pH 7.0, reagent 0.1%, substrate 4.8 mM, control 0.72
[12] = phthalic acid buffer pH 7.0, reagent 0.1%, substrate 19.2 mM, control 0.75
[13] = phthalic acid buffer pH 7.0, reagent 0.2%, substrate 4.8 mM, control 0.72
[14] = phthalic acid buffer pH 7.0, reagent 0.2%, substrate 19.2 mM, control 0.75
[15] = potassium phosphate buffer pH 7.0, reagent 0.5%, substrate 19.2 mM, control 0.93
[16] = potassium phosphate buffer pH 7.0, reagent 1%, substrate 19.2 mM, control 0.93
[17] = reagent 0.5%, substrate 4.8 mM, control 0.85
[18] = reagent 1%, substrate 4.8 mM, control 0.85
[19] = reagent 2%, substrate 4.8 mM, control 0.85
[20] = reagent 2%, substrate 19.2 mM, control 0.93

| Molecule | Maltose Activity (%) (modified PQQGDH [1]) | Maltose/glucose ratio (modified PQQGDH [2]; [5]) | Maltose/glucose ratio (modified PQQGDH [2]; [6]) | Maltose/glucose ratio (modified PQQGDH [2]; [7]) | Maltose/glucose ratio (modified PQQGDH [2]; [8]) | Maltose/glucose ratio (modified PQQGDH [2]; [9]) | Maltose/glucose ratio (modified PQQGDH [2]; [10]) | Maltose/glucose ratio (modified PQQGDH [2]; [11]) | Maltose/glucose ratio (modified PQQGDH [2]; [12]) | Maltose/glucose ratio (modified PQQGDH [2]; [13]) | Maltose/glucose ratio (modified PQQGDH [2]; [14]) | Maltose/glucose ratio (modified PQQGDH [2]; [15]) | Maltose/glucose ratio (modified PQQGDH [2]; [16]) | activity with respect to maltose compared with the control (in words) (modified PQQGDH [2]) | Maltose/glucose ratio (modified PQQGDH [3]; [17]) | Maltose/glucose ratio (modified PQQGDH [3]; [18]) | Maltose/glucose ratio (modified PQQGDH [3]; [19]) | Maltose/glucose ratio (modified PQQGDH [3]; [20]) | other results |
| --- | --- | --- | --- | --- | --- | --- | --- | --- | --- | --- | --- | --- | --- | --- | --- | --- | --- | --- | --- |
| O=C(O)CCCCCC(=O)O [Pimeric acid] | 23.1 | 0.63 | 0.78 | 0.39 | 0.44 | 0.64 | 0.64 | 0.71 | 0.58 | 0.76 | 0.58 | 0.86 | 0.80 | did not decrease | 0.71 | 0.58 | 0.44 | 0.58 | maltose activity on lowering the pH (in words) (modified PQQGDH [1]; pH 5.0, 6.0, 7.0, compared with phosphoric acid): decrease more; Maltose Activity of Glucose Electrode (modified PQQGDH [1]; pH 5.0): 15.2%; Maltose Activity of Glucose Electrode (modified PQQGDH [1]; pH 6.0): 23.8%; Maltose Activity of Glucose Electrode (modified PQQGDH [1]; pH 7.0): 49.1% |
| CC(C)(CC(=O)O)CC(=O)O [3,3-dimethylglutaric acid] | 14.9 | 0.56 | 0.76 | 0.37 | 0.47 |  |  |  |  |  |  | 0.82 | 0.64 |  | 0.60 | 0.44 | 0.41 | 0.49 |  |
| O=C(O)CCC(=O)O [Succinic acid] | 22.5 | 0.55 | 0.75 | 0.35 | 0.52 | 0.65 | 0.56 | 0.73 | 0.57 | 0.77 | 0.60 | 0.84 | 0.62 | did not decrease | 0.65 | 0.47 | 0.34 | 0.45 |  |
| O=C(O)CCCCC(=O)O [Adipic acid] | 20.7 | 0.73 | 0.84 | 0.43 | 0.67 | 0.66 | 0.68 | 0.65 | 0.64 | 0.65 | 0.58 |  |  |  |  |  |  |  |  |
| B1 |  |  |  |  |  |  |  |  |  |  |  |  |  |  |  |  |  |  | maltose activity (ratio of the activity value when using maltose to the activity value when using glucose) [4]: 110% |

Source: patent US7381540B2, “Composition for measuring glucose having improved substrate specificity” (Toyo Boseki Kabushiki Kaisha, priority 2005, dated 2008)
